Results as given in the NIST ThermoML archive (doi:10.1021/je060271a).
“And” between values parts separate entries of the source, which are not always exact repeats. Identical values can stand only once. ± gives the expanded uncertainty stated by the source.

Conditions: Liquid, Vibrating tube method

Question: What does the source list for `CCCCCC(=O)OCC(COC(=O)CCCCC)(COC(=O)CCCCC)COC(=O)CCCCC` [pentaerythritol tetrahexanoate]?
Answer: mass density (323.15 K, 11949 kPa): 980.8 ± 1.2 kg/m3; mass density (323.15 K, 11977 kPa): 980.8 ± 1.2 kg/m3; mass density (323.15 K, 12000 kPa): 980.8 ± 1.2 kg/m3; mass density (323.15 K, 12028 kPa): 980.8 ± 1.2 kg/m3; mass density (323.15 K, 12051 kPa): 980.9 ± 1.2 kg/m3; mass density (323.15 K, 12077 kPa): 980.9 ± 1.2 kg/m3; mass density (323.15 K, 12104 kPa): 981 ± 1.2 kg/m3; mass density (323.15 K, 12127 kPa): 980.9 ± 1.2 kg/m3; mass density (323.15 K, 12155 kPa): 980.9 ± 1.2 kg/m3; mass density (323.15 K, 12178 kPa): 981 ± 1.2 kg/m3; mass density (323.15 K, 12205 kPa): 981 ± 1.2 kg/m3; mass density (323.15 K, 12233 kPa): 980.9 ± 1.2 kg/m3; mass density (323.15 K, 12257 kPa): 981 ± 1.2 kg/m3; mass density (323.15 K, 12285 kPa): 981.1 ± 1.2 kg/m3; mass density (323.15 K, 12310 kPa): 981.2 ± 1.2 kg/m3; mass density (323.15 K, 12338 kPa): 981.1 ± 1.2 kg/m3; mass density (323.15 K, 12362 kPa): 981.2 ± 1.2 kg/m3; mass density (323.15 K, 12390 kPa): 981.1 ± 1.2 kg/m3; mass density (323.15 K, 12414 kPa): 981 ± 1.2 kg/m3; mass density (323.15 K, 12442 kPa): 981.2 ± 1.2 kg/m3; mass density (323.15 K, 12471 kPa): 981.2 ± 1.2 kg/m3; mass density (323.15 K, 12494 kPa): 981.2 ± 1.2 kg/m3; mass density (323.15 K, 12523 kPa): 981.3 ± 1.2 kg/m3; mass density (323.15 K, 12547 kPa): 981.4 ± 1.2 kg/m3; mass density (323.15 K, 12576 kPa): 981.2 ± 1.2 kg/m3; mass density (323.15 K, 12605 kPa): 981.4 ± 1.2 kg/m3; mass density (323.15 K, 12630 kPa): 981.2 ± 1.2 kg/m3; mass density (323.15 K, 12927 kPa): 981.5 ± 1.2 kg/m3; mass density (323.15 K, 12950 kPa): 981.5 ± 1.2 kg/m3; mass density (323.15 K, 12980 kPa): 981.6 ± 1.2 kg/m3; mass density (323.15 K, 13006 kPa): 981.6 ± 1.2 kg/m3; mass density (323.15 K, 13029 kPa): 981.6 ± 1.2 kg/m3; mass density (323.15 K, 13186 kPa): 981.7 ± 1.2 kg/m3; mass density (323.15 K, 13214 kPa): 981.6 ± 1.2 kg/m3; mass density (323.15 K, 13237 kPa): 981.6 ± 1.2 kg/m3; mass density (323.15 K, 13264 kPa): 981.8 ± 1.2 kg/m3; mass density (323.15 K, 13292 kPa): 981.7 ± 1.2 kg/m3; mass density (323.15 K, 13315 kPa): 981.8 ± 1.2 kg/m3; mass density (323.15 K, 13345 kPa): 981.8 ± 1.2 kg/m3; mass density (323.15 K, 13368 kPa): 981.9 ± 1.2 kg/m3; mass density (323.15 K, 13396 kPa): 981.8 ± 1.2 kg/m3; mass density (323.15 K, 13420 kPa): 981.8 ± 1.2 kg/m3; mass density (323.15 K, 13891 kPa): 982.1 ± 1.2 kg/m3; mass density (323.15 K, 13918 kPa): 982.1 ± 1.2 kg/m3; mass density (323.15 K, 13941 kPa): 982.1 ± 1.2 kg/m3; mass density (323.15 K, 13969 kPa): 982.2 ± 1.2 kg/m3; mass density (323.15 K, 13992 kPa): 982.2 ± 1.2 kg/m3; mass density (323.15 K, 14020 kPa): 982.3 ± 1.2 kg/m3; mass density (323.15 K, 14514 kPa): 982.5 ± 1.2 kg/m3; mass density (323.15 K, 14565 kPa): 982.6 ± 1.2 kg/m3; mass density (323.15 K, 14593 kPa): 982.6 ± 1.2 kg/m3; mass density (323.15 K, 14621 kPa): 982.6 ± 1.2 kg/m3; mass density (323.15 K, 14645 kPa): 982.6 ± 1.2 kg/m3; mass density (323.15 K, 14674 kPa): 982.6 ± 1.2 kg/m3; mass density (323.15 K, 14698 kPa): 982.5 ± 1.2 kg/m3; mass density (323.15 K, 14726 kPa): 982.7 ± 1.2 kg/m3; mass density (323.15 K, 14750 kPa): 982.7 ± 1.2 kg/m3; mass density (323.15 K, 14778 kPa): 982.8 ± 1.2 kg/m3; mass density (323.15 K, 14807 kPa): 982.7 ± 1.2 kg/m3; mass density (323.15 K, 14831 kPa): 982.8 ± 1.2 kg/m3; mass density (323.15 K, 15257 kPa): 983 ± 1.2 kg/m3; mass density (323.15 K, 15281 kPa): 983.1 ± 1.2 kg/m3; mass density (323.15 K, 15309 kPa): 983.1 ± 1.2 kg/m3; mass density (323.15 K, 15339 kPa): 983 ± 1.2 kg/m3; mass density (323.15 K, 15364 kPa): 983.2 ± 1.2 kg/m3; mass density (323.15 K, 15393 kPa): 983.1 ± 1.2 kg/m3; mass density (323.15 K, 15417 kPa): 983.1 ± 1.2 kg/m3; mass density (323.15 K, 20896 kPa): 986.7 ± 1.2 kg/m3; mass density (323.15 K, 22666 kPa): 987.8 ± 1.2 kg/m3; mass density (323.15 K, 28442 kPa): 991.1 ± 1.2 kg/m3; mass density (323.15 K, 28670 kPa): 991.3 ± 1.2 kg/m3; mass density (323.15 K, 28695 kPa): 991.4 ± 1.2 kg/m3; mass density (323.15 K, 28724 kPa): 991.4 ± 1.2 kg/m3; mass density (323.15 K, 28754 kPa): 991.4 ± 1.2 kg/m3; mass density (323.15 K, 28783 kPa): 991.4 ± 1.2 kg/m3; mass density (323.15 K, 28808 kPa): 991.4 ± 1.2 kg/m3; mass density (323.15 K, 28838 kPa): 991.4 ± 1.2 kg/m3; mass density (323.15 K, 28867 kPa): 991.4 ± 1.2 kg/m3; mass density (323.15 K, 28897 kPa): 991.6 ± 1.2 kg/m3; mass density (323.15 K, 28927 kPa): 991.5 ± 1.2 kg/m3; mass density (323.15 K, 28957 kPa): 991.6 ± 1.2 kg/m3; mass density (323.15 K, 28982 kPa): 991.5 ± 1.2 kg/m3; mass density (323.15 K, 29012 kPa): 991.5 ± 1.2 kg/m3; mass density (323.15 K, 29044 kPa): 991.5 ± 1.2 kg/m3; mass density (323.15 K, 29070 kPa): 991.5 ± 1.2 kg/m3; mass density (323.15 K, 29101 kPa): 991.7 ± 1.2 kg/m3; mass density (323.15 K, 29132 kPa): 991.7 ± 1.2 kg/m3; mass density (323.15 K, 29158 kPa): 991.6 ± 1.2 kg/m3; mass density (323.15 K, 29554 kPa): 991.8 ± 1.2 kg/m3; mass density (323.15 K, 29577 kPa): 991.9 ± 1.2 kg/m3; mass density (323.15 K, 29762 kPa): 992 ± 1.2 kg/m3; mass density (323.15 K, 29785 kPa): 992 ± 1.2 kg/m3; mass density (323.15 K, 29812 kPa): 992 ± 1.2 kg/m3; mass density (323.15 K, 29839 kPa): 992.1 ± 1.2 kg/m3; mass density (323.15 K, 29866 kPa): 992.2 ± 1.2 kg/m3; mass density (323.15 K, 29893 kPa): 992.1 ± 1.2 kg/m3; mass density (323.15 K, 29921 kPa): 992 ± 1.2 kg/m3; mass density (323.15 K, 29944 kPa): 992 ± 1.2 kg/m3; mass density (323.15 K, 29972 kPa): 992.2 ± 1.2 kg/m3; mass density (323.15 K, 30466 kPa): 992.5 ± 1.2 kg/m3; mass density (323.15 K, 30496 kPa): 992.4 ± 1.2 kg/m3; mass density (323.15 K, 30520 kPa): 992.4 ± 1.2 kg/m3; mass density (323.15 K, 30549 kPa): 992.5 ± 1.2 kg/m3; mass density (323.15 K, 31454 kPa): 992.9 ± 1.2 kg/m3; mass density (323.15 K, 31474 kPa): 992.9 ± 1.2 kg/m3; mass density (323.15 K, 31495 kPa): 993 ± 1.2 kg/m3; mass density (323.15 K, 31516 kPa): 993 ± 1.2 kg/m3; mass density (323.15 K, 31533 kPa): 993 ± 1.2 kg/m3; mass density (323.15 K, 31653 kPa): 993.1 ± 1.2 kg/m3; mass density (323.15 K, 31674 kPa): 993.2 ± 1.2 kg/m3; mass density (323.15 K, 31695 kPa): 993.2 ± 1.2 kg/m3; mass density (323.15 K, 31717 kPa): 993.1 ± 1.2 kg/m3; mass density (323.15 K, 31734 kPa): 993.2 ± 1.2 kg/m3; mass density (323.15 K, 31755 kPa): 993.1 ± 1.2 kg/m3; mass density (323.15 K, 32384 kPa): 993.6 ± 1.2 kg/m3 and 993.5 ± 1.2 kg/m3; mass density (323.15 K, 32385 kPa): 993.5 ± 1.2 kg/m3; mass density (323.15 K, 32386 kPa): 993.5 ± 1.2 kg/m3; mass density (323.15 K, 32387 kPa): 993.6 ± 1.2 kg/m3; mass density (323.16 K, 578.8 kPa): 973 ± 1.2 kg/m3; mass density (323.16 K, 580.8 kPa): 973.2 ± 1.2 kg/m3; mass density (323.16 K, 582.6 kPa): 973.1 ± 1.2 kg/m3; mass density (323.16 K, 584.7 kPa): 973 ± 1.2 kg/m3; mass density (323.16 K, 586.6 kPa): 973 ± 1.2 kg/m3; mass density (323.16 K, 588.7 kPa): 973 ± 1.2 kg/m3; mass density (323.16 K, 590.7 kPa): 973.3 ± 1.2 kg/m3; mass density (323.16 K, 714.1 kPa): 973.2 ± 1.2 kg/m3; mass density (323.16 K, 716.9 kPa): 973.2 ± 1.2 kg/m3; mass density (323.16 K, 718.8 kPa): 973.3 ± 1.2 kg/m3; mass density (323.16 K, 721.8 kPa): 973.3 ± 1.2 kg/m3; mass density (323.16 K, 724 kPa): 973.2 ± 1.2 kg/m3; mass density (323.16 K, 727.1 kPa): 973.1 ± 1.2 kg/m3; mass density (323.16 K, 729.4 kPa): 973.2 ± 1.2 kg/m3; mass density (323.16 K, 732.2 kPa): 973.2 ± 1.2 kg/m3; mass density (323.16 K, 735.1 kPa): 973.1 ± 1.2 kg/m3; mass density (323.16 K, 737.9 kPa): 973.2 ± 1.2 kg/m3; mass density (323.16 K, 1019.3 kPa): 973.3 ± 1.2 kg/m3; mass density (323.16 K, 1022.8 kPa): 973.4 ± 1.2 kg/m3; mass density (323.16 K, 1026.6 kPa): 973.4 ± 1.2 kg/m3; mass density (323.16 K, 1030.3 kPa): 973.5 ± 1.2 kg/m3; mass density (323.16 K, 1034.3 kPa): 973.3 ± 1.2 kg/m3; mass density (323.16 K, 1037.9 kPa): 973.5 ± 1.2 kg/m3; mass density (323.16 K, 1042.3 kPa): 973.3 ± 1.2 kg/m3; mass density (323.16 K, 1045.6 kPa): 973.4 ± 1.2 kg/m3; mass density (323.16 K, 1049.9 kPa): 973.4 ± 1.2 kg/m3; mass density (323.16 K, 1053.7 kPa): 973.4 ± 1.2 kg/m3
